In brackets after ≈: the same amount, converted by molar mass. Activity calls are given as the source filed them. No cut-off for these calls is given here.
Tested on: Bacillus subtilis
Test: Antibacterial activity against Bacillus subtilis by disk diffusion assay
Format: functional
Conditions: not given

| Structure (SMILES) | inhibition zone (IZ) |
| --- | --- |
| O=C(O)c1ccc(-n2cc(/C=N/NC(=O)c3ccc(F)cc3)c(-c3ccccc3)n2)cc1 | inactive |
| O=C(O)c1ccc(-n2cc(CNc3ccc(F)c(C(F)(F)F)c3)c(-c3ccccc3)n2)cc1 | 22 mm |
| NC(=O)N/N=C/c1cn(-c2ccc(C(=O)O)cc2)nc1-c1ccccc1 | inactive |
| O=C(O)c1ccc(-n2cc(/C=N/NC(=O)c3ccccc3F)c(-c3ccccc3)n2)cc1 | 11 mm |
| O=C(O)c1ccc(-n2cc(CNc3cccc(C(=O)O)c3)c(-c3ccccc3)n2)cc1 | inactive |
| Cc1ccc(NCc2cn(-c3ccc(C(=O)O)cc3)nc2-c2ccccc2)cc1Cl | 16 mm |
| O=C(O)c1ccc(-n2cc(/C=N/NC(=O)c3ccccc3O)c(-c3ccccc3)n2)cc1 | inactive |
| O=C(O)c1ccc(-n2cc(CNc3cc(C(F)(F)F)cc(C(F)(F)F)c3)c(-c3ccccc3)n2)cc1 | 25 mm |
| O=C(O)c1ccc(-n2cc(/C=N/NS(=O)(=O)c3ccccc3)c(-c3ccccc3)n2)cc1 | 10 mm |
| O=C(O)c1ccc(-n2cc(CNc3ccc(Cl)c(C(F)(F)F)c3)c(-c3ccccc3)n2)cc1 | 17 mm |
| CC(=O)N/N=C/c1cn(-c2ccc(C(=O)O)cc2)nc1-c1ccccc1 | inactive |
| O=C(O)c1ccc(-n2cc(CNc3ccc(F)c(Cl)c3)c(-c3ccccc3)n2)cc1 | 11 mm |
| COC(=O)N/N=C/c1cn(-c2ccc(C(=O)O)cc2)nc1-c1ccccc1 | inactive |
| O=C(O)c1ccc(-n2cc(CNc3ccc(Br)c(C(F)(F)F)c3)c(-c3ccccc3)n2)cc1 | 12 mm |
| O=C(O)c1ccc(-n2cc(CNc3cc(C(=O)O)cc(C(=O)O)c3)c(-c3ccccc3)n2)cc1 | 9 mm |
| Cc1ccccc1NCc1cn(-c2ccc(C(=O)O)cc2)nc1-c1ccccc1 | 16 mm |
| Cc1ccc(S(=O)(=O)N/N=C/c2cn(-c3ccc(C(=O)O)cc3)nc2-c2ccccc2)cc1 | 11 mm |
| O=C(O)c1ccc(-n2cc(/C=N/NC(=O)c3ccncc3)c(-c3ccccc3)n2)cc1 | inactive |
| O=C(O)c1ccc(-n2cc(/C=N/NC(=O)c3cccnc3)c(-c3ccccc3)n2)cc1 | inactive |
| O=C(O)c1ccc(-n2cc(/C=N/NC(=O)c3ccc4ccccc4c3O)c(-c3ccccc3)n2)cc1 | inactive |
| COc1ccc(C(=O)N/N=C/c2cn(-c3ccc(C(=O)O)cc3)nc2-c2ccccc2)cc1 | 11 mm |

Tested on: Staphylococcus aureus
Test: Antibacterial activity against methicillin-resistant Staphylococcus aureus ATCC 43300 by disk diffusion assay
Format: functional
Conditions: not given

| Structure (SMILES) | inhibition zone (IZ) |
| --- | --- |
| O=C(O)c1ccc(-n2cc(/C=N/NC(=O)c3ccc(F)cc3)c(-c3ccccc3)n2)cc1 | inactive |
| O=C(O)c1ccc(-n2cc(CNc3ccc(F)c(C(F)(F)F)c3)c(-c3ccccc3)n2)cc1 | 21 mm |
| NC(=O)N/N=C/c1cn(-c2ccc(C(=O)O)cc2)nc1-c1ccccc1 | inactive |
| O=C(O)c1ccc(-n2cc(/C=N/NC(=O)c3ccccc3F)c(-c3ccccc3)n2)cc1 | 10 mm |
| O=C(O)c1ccc(-n2cc(CNc3cccc(C(=O)O)c3)c(-c3ccccc3)n2)cc1 | inactive |
| Cc1ccc(NCc2cn(-c3ccc(C(=O)O)cc3)nc2-c2ccccc2)cc1Cl | 13 mm |
| O=C(O)c1ccc(-n2cc(/C=N/NC(=O)c3ccccc3O)c(-c3ccccc3)n2)cc1 | inactive |
| O=C(O)c1ccc(-n2cc(CNc3cc(C(F)(F)F)cc(C(F)(F)F)c3)c(-c3ccccc3)n2)cc1 | 22 mm |
| O=C(O)c1ccc(-n2cc(/C=N/NS(=O)(=O)c3ccccc3)c(-c3ccccc3)n2)cc1 | 9 mm |
| O=C(O)c1ccc(-n2cc(CNc3ccc(Cl)c(C(F)(F)F)c3)c(-c3ccccc3)n2)cc1 | 17 mm |
| CC(=O)N/N=C/c1cn(-c2ccc(C(=O)O)cc2)nc1-c1ccccc1 | inactive |
| O=C(O)c1ccc(-n2cc(CNc3ccc(F)c(Cl)c3)c(-c3ccccc3)n2)cc1 | 11 mm |
| COC(=O)N/N=C/c1cn(-c2ccc(C(=O)O)cc2)nc1-c1ccccc1 | inactive |
| O=C(O)c1ccc(-n2cc(CNc3ccc(Br)c(C(F)(F)F)c3)c(-c3ccccc3)n2)cc1 | 15 mm |
| O=C(O)c1ccc(-n2cc(CNc3cc(C(=O)O)cc(C(=O)O)c3)c(-c3ccccc3)n2)cc1 | 10 mm |
| Cc1ccccc1NCc1cn(-c2ccc(C(=O)O)cc2)nc1-c1ccccc1 | 14 mm |
| Cc1ccc(S(=O)(=O)N/N=C/c2cn(-c3ccc(C(=O)O)cc3)nc2-c2ccccc2)cc1 | 12 mm |
| O=C(O)c1ccc(-n2cc(/C=N/NC(=O)c3ccncc3)c(-c3ccccc3)n2)cc1 | inactive |
| O=C(O)c1ccc(-n2cc(/C=N/NC(=O)c3cccnc3)c(-c3ccccc3)n2)cc1 | inactive |
| O=C(O)c1ccc(-n2cc(/C=N/NC(=O)c3ccc4ccccc4c3O)c(-c3ccccc3)n2)cc1 | inactive |
| COc1ccc(C(=O)N/N=C/c2cn(-c3ccc(C(=O)O)cc3)nc2-c2ccccc2)cc1 | 8 mm |

Tested on: Staphylococcus aureus
Test: Antibacterial activity against methicillin-resistant Staphylococcus aureus ATCC 43300
Format: functional
Conditions: not given

| Structure (SMILES) | MIC |
| --- | --- |
| O=C(O)c1ccc(-n2cc(CNc3ccc(F)c(C(F)(F)F)c3)c(-c3ccccc3)n2)cc1 | 32 µg/mL (≈ 70.3 µM) |
| Cc1ccc(NCc2cn(-c3ccc(C(=O)O)cc3)nc2-c2ccccc2)cc1Cl | 16 µg/mL (≈ 38.3 µM) |
| O=C(O)c1ccc(-n2cc(CNc3cc(C(F)(F)F)cc(C(F)(F)F)c3)c(-c3ccccc3)n2)cc1 | 32 µg/mL (≈ 63.3 µM) |
| O=C(O)c1ccc(-n2cc(CNc3ccc(Cl)c(C(F)(F)F)c3)c(-c3ccccc3)n2)cc1 | 32 µg/mL (≈ 67.8 µM) |
| O=C(O)c1ccc(-n2cc(CNc3ccc(Br)c(C(F)(F)F)c3)c(-c3ccccc3)n2)cc1 | 32 µg/mL (≈ 62 µM) |

Tested on: not listed separately
Test: Cytotoxicity against HEK293 cells
Format: cell-based
Conditions: human

| Structure (SMILES) | CC50 |
| --- | --- |
| O=C(O)c1ccc(-n2cc(CNc3ccc(F)c(C(F)(F)F)c3)c(-c3ccccc3)n2)cc1 | > 32 µg/mL |
| Cc1ccc(NCc2cn(-c3ccc(C(=O)O)cc3)nc2-c2ccccc2)cc1Cl | 20 µg/mL (≈ 47.9 µM) |
| O=C(O)c1ccc(-n2cc(CNc3cc(C(F)(F)F)cc(C(F)(F)F)c3)c(-c3ccccc3)n2)cc1 | > 32 µg/mL |
| O=C(O)c1ccc(-n2cc(CNc3ccc(Cl)c(C(F)(F)F)c3)c(-c3ccccc3)n2)cc1 | > 32 µg/mL |
| O=C(O)c1ccc(-n2cc(CNc3ccc(Br)c(C(F)(F)F)c3)c(-c3ccccc3)n2)cc1 | > 32 µg/mL |
